Tests used:
KDR kinase = KDR kinase (Homo sapiens (Human), UniProt P35968); experiment: KDR control kinase activity, HTRF KinEASE-TK TR-FRET assay; assay type: biochemical; conditions: inhibition of KDR kinase; 16000 nM~0.04 nM, 2% DMSO
Description: (§1) In this method, HTRF®KinEASE-TK Tyrosine Kinase Kit (Cat. No. 62TK0PEB) of Cisbio was used to determine the degree of phosphorylation of biotinylated polypeptide substrates by time-resolved fluorescence energy transfer (TR-FRET). Human RET protein (RET kinase) was purchased from Carna bioscience (Japan, Cat. No. 08-159-5 μg).
(§2) The experimental steps are as follows: • (1) The test compound (the compound of the present disclosure, and compound 164 in WO2018017983A1 as a control) was dissolved in 100% DMSO to a final concentration of 10 mM. • (2) 4 μL of the test compound solution prepared in step (1) was dissolved with 46 μL of 100% DMSO, and the solution obtained in this step was numbered as No. 2. • (3) No. 2 solution was subjected to subsequent gradient dilution with a dilution factor of 5 times (i.e. 20 μL of 100% DMSO was added to 5 μL of the compound), a total of 9 gradients, numbered 3 to 11.
(§3) (Unless otherwise specified, the following steps need to be carried out on ice) • (4) The buffer provided in the kit (Cisbio, Cat. No. 62TK0PEB) was used to continuously serially dilute the solutions numbered from 3 to 11 with a dilution factor of 20 times (that is, adding 19 μL of buffer to the solutions numbered from 3 to 11). At this time, the final concentration range of the test compound in the system No. 3 to 11 was 3200 nM˜0.008 nM (9 gradients), and the final concentration of DMSO was 2%. • (5) 9 compound solutions of gradient concentration in step (4) were added into a 384-well plate in order according to their concentration at 4 μL per well, and two duplicate wells were set. • (6) 2 μL of human RET protein was added to each well and incubated on ice for 10 minutes. • (7) 2 μL of ATP (Sigma #A7699) and 2 μL of biotinylated polypeptide substrate (Cisbio, Cat. No. 62TK0PEB) were added to each well to start the phosphorylation reaction, and incubated at 37° C. for half an hour. • (8) 5 μL of anti-phosphotyrosine antibody coupled with europium compound (provided in the kit, Cat. No. 62TK0PEB) and 5 μL of streptavidin coupled with modified allophycocyanin XL665 (Cisbio, Cat. No. 62TK0PEB) were added to each well. • (9) The plate was continued to incubate for 1 hour at room temperature. After the incubation, the TF-FRET mode of the microplate reader (BMG Labtech, model: FLUOStar Omega) was adopted to measure the fluorescence intensity at an excitation wavelength of 304 nm and emission wavelengths of 615 nm and […] in each well. The ratio would be calculated automatically. • (10) By comparing the fluorescence intensity ratio in the control group, the inhibition rate of the compound at each concentration was calculated, and GraphPad Prism 5 was used to perform curve fitting with logarithmic concentration-inhibition rate to calculate the IC50 value of the compound.
The selected control kinase is another receptor tyrosine kinase, KDR, with similar structure to RET kinase, purchased from Carna bioscience (Japan, Cat. No. 08-191-5 μg). The step of gradient dilution was the same as that of RET kinase, and the final concentration range of the test compound in the reaction system was 16000 nM˜0.04 nM (No. 2-10 solutions were used for the gradient dilution in step 4). Other reaction conditions were the same as above, and the final concentration of DMSO was 2%. The calculation method for the IC50 value of KDR kinase inhibition by the test compound was the same as the calculation method for the IC50 value of RET kinase inhibition.

[1] = target: Human RET protein (RET kinase) (Homo sapiens (Human), UniProt P07949); experiment: RET kinase activity, HTRF KinEASE-TK TR-FRET assay; assay type: biochemical; conditions: inhibition of RET kinase; 9 concentrations 3200 nM~0.008 nM, 2% DMSO
Description: Test Example 1. Determination of the Activity of the Compound of the Present Disclosure on RET Kinase
as §1, §2
Note: No. 2 was not used for the dilution in step (4).
as §3

Sequence of Human RET protein (RET kinase) (P07949 29-1114): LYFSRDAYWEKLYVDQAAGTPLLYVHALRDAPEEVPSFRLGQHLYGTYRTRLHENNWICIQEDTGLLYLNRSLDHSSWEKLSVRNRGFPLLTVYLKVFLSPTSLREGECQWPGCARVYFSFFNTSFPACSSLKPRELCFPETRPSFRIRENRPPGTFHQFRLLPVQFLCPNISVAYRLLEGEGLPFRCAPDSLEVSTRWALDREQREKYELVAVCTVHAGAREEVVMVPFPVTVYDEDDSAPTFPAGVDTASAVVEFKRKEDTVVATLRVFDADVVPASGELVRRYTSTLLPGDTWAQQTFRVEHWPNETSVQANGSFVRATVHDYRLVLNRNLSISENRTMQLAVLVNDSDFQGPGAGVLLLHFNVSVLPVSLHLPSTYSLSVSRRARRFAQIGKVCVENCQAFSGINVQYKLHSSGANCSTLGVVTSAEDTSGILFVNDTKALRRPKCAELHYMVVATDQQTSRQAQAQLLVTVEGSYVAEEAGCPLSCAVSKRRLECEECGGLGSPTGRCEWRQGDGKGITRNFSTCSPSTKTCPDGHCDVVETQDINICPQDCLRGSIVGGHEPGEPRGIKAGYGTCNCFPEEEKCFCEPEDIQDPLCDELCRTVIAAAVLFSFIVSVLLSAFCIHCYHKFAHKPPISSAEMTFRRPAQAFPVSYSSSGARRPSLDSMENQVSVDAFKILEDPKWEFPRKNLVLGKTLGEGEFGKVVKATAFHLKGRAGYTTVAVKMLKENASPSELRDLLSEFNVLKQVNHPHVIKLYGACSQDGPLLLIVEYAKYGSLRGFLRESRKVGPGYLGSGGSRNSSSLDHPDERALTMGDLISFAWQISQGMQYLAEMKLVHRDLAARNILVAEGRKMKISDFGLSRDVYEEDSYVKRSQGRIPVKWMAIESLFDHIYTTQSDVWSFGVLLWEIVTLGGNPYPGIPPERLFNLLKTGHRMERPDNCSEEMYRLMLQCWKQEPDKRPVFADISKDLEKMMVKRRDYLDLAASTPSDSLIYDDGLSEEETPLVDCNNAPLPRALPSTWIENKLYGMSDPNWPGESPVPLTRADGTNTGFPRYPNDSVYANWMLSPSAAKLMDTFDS
Sequence of KDR kinase (P35968 20-1356): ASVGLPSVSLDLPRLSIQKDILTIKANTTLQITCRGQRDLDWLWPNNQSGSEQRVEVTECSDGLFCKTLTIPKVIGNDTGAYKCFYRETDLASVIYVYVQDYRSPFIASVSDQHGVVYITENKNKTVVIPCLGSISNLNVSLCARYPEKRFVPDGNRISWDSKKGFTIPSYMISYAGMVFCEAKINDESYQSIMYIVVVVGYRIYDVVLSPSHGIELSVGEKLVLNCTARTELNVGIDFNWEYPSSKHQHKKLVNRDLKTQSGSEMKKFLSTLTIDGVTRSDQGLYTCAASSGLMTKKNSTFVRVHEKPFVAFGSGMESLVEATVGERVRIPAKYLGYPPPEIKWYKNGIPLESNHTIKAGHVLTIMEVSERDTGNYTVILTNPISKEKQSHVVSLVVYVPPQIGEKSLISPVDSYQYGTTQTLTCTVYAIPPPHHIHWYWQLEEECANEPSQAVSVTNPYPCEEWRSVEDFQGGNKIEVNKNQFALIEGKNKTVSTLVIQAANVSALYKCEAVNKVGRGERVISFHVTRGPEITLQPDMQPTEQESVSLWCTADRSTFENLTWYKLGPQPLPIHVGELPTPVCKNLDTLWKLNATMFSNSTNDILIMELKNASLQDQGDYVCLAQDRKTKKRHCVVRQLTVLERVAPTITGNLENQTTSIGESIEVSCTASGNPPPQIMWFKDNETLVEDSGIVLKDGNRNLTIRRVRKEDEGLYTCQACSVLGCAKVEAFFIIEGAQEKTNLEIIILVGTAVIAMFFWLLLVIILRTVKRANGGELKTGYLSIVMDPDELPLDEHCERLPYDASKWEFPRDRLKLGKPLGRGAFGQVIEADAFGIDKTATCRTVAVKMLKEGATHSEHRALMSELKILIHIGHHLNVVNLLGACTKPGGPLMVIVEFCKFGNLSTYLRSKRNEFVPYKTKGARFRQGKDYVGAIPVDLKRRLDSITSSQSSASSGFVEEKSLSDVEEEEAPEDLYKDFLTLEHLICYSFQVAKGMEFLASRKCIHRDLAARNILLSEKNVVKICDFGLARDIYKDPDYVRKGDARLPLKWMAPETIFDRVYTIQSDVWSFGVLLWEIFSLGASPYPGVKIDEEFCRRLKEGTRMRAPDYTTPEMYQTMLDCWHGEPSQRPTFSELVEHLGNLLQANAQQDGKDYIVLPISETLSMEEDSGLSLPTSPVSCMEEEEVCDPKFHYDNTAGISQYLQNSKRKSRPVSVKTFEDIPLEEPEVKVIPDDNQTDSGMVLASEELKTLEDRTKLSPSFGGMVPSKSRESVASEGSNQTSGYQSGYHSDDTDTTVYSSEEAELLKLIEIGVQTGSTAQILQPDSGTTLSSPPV

Row | SMILES | IC50 (KDR kinase) [nM] | IC50 [1] [nM]
1 | Cc1cc(Nc2cc(C)[nH]n2)nc(N2CCC(C(=O)N[C@@H](C)c3ccc(-n4cc(F)cn4)nc3)CC2)c1 [Compound 164, reference compound] | 2300 | 73
2 | Cc1cc(Nc2cc(C)[nH]n2)nc(N2CCN(C(=O)c3ccc(-n4cc(F)cn4)nc3)CC2)n1 [Compound I-1, (6-(4-fluoro-1H-pyrazol-1-yl)pyridin-3-yl)(4-(4-methyl-6-((5-methyl-1H-pyrazol-3-yl)amino)pyrimidin-2-yl)piperazin-1-yl)methanone] | 1130 | 12.5
3 | Cc1cc(Nc2cc(C)[nH]n2)nc(N2CCN(C(=O)c3ccc(-n4cc(F)cn4)nc3)[C@@H](C)C2)n1 [Compound I-2, (S)-(6-(4-fluoro-1H-pyrazol-1-yl)pyridin-3-yl)(2-methyl-4-(4-methyl-6-((5-methyl-1H-pyrazol-3-yl)amino)pyrimidin-2-yl)piperazin-1-yl)methanone] | 851 | 11.8
4 | Cc1cc(Nc2cc(C)[nH]n2)nc(N2CC3CCC(C2)N3C(=O)c2ccc(-n3cc(F)cn3)nc2)n1 [Compound I-4, (6-(4-fluoro-1H-pyrazol-1-yl)pyridin-3-yl)(3-(4-methyl-6-((5-methyl-1H-pyrazol-3-yl)amino)pyrimidin-2-yl)-3,8-diazabicyclo [3.2.1]octane-8-yl) methanone] | 80 | 1.4
5 | Cc1cc(Nc2nc(N3CC4CCC(C3)N4C(=O)c3ccc(-n4cc(F)cn4)nc3)nc3ccccc23)n[nH]1 [Compound I-5, (6-(4-fluoro-1H-pyrazol-1-yl)pyridin-3-yl)(3-(4-((5-methyl-1H-pyrazol-3-yl)amino)quinazoline-2-yl)-3,8-diazabicyclo[3.2.1]octane-8-yl)methanone] | 149 | 6.2
6 | Cc1cc(Nc2cc(C)[nH]n2)nc(N2CC3COCC(C2)N3C(=O)c2ccc(-n3cc(F)cn3)nc2)n1 [Compound I-7, (6-(4-fluoro-1H-pyrazol-1-yl)pyridin-3-yl)(7-(4-methyl-6-((5-methyl-1H-pyrazol-3-yl)amino)pyrimidin-2-yl)-3-oxa-7,9-diazabicyclo [3.3.1]nonane-9-yl)methanone] | 391 | 10.3
7 | Cc1cc(Nc2cc(C)[nH]n2)nc(N2C3CCC2CN(C(=O)c2ccc(-n4cc(C#N)cn4)nc2)C3)n1 [Compound I-9] | 304 | 8.6
8 | Cc1cc(Nc2cc(C)[nH]n2)nc(N2CC3CCC(C2)N3C(=O)c2ccc(N3CC4C(C3)C4(C)C)nc2)n1 (centres unmarked) [Compound I-10, (6-(6,6-dimethyl-3-azabicyclo [3.1.0]hexane-3-yl)pyridin-3-yl)(3-(4-methyl-6-((5-methyl-1H-pyrazol-3-yl)amino)pyrimidin-2-yl)-3,8-diazabicyclo[3.2.1]octane-8-yl)methanone] | 1550 | 7.3
9 | COC(=O)c1cc(Nc2cc(C)[nH]n2)nc(N2CC3CCC(C2)N3C(=O)c2ccc(-n3cc(F)cn3)nc2)n1 [Compound I-11, Methyl 2-(8-(6-(4-fluoro-1H-pyrazol-1-yl)nicotinoyl)-3,8-diazabicyclo[3.2.1]octane-3-yl)-6-((5-methyl-1H-pyrazol-3-yl)amino)pyrimidin-4-carboxylate] | 1020 | 24.7
10 | Cc1cc(Nc2cc(C)[nH]n2)nc(N2CCN(C(=O)c3ccc(-n4cc(F)cn4)nc3)C3(CC3)C2)n1 [Compound I-12, (6-(4-fluoro-1H-pyrazol-1-yl)pyridin-3-yl)(7-(4-methyl-6-((5-methyl-1H-pyrazol-3-yl)amino)pyrimidin-2-yl)-4,7-diazaspiro[2.5]octane-4-yl)methanone] | 180 | 0.6
11 | Cc1cc(Nc2cc(C)[nH]n2)nc(N2CC3CCC(C2)N3C(=O)c2ccc(-n3cc(F)cn3)nn2)n1 [Compound I-13, (6-(4-fluoro-1H-pyrazol-1-yl)pyridazin-3-yl)(3-(4-methyl-6-((5-methyl-1H-pyrazol-3-yl)amino)pyrimidin-2-yl)-3,8-diazabicyclo[3.2.1]octane-8-yl)methanone] | 78 | 1.5
12 | Cc1cc(Nc2cc(C(F)(F)F)nc(N3CC4CCC(C3)N4C(=O)c3ccc(-n4cc(F)cn4)nn3)n2)n[nH]1 [Compound I-16, (6-(4-fluoro-1H-pyrazol-1-yl)pyridazin-3-yl)(3-(4-((5-methyl-1H-pyrazol-3-yl)amino)-6-(trifluoromethyl)pyrimidin-2-yl)-3,8-diazabicyclo[3.2.1]octane-8-yl)methanone] | 738 | 8
13 | Cc1cc(Nc2cc(C(=O)O)nc(N3CC4CCC(C3)N4C(=O)c3ccc(-n4cc(F)cn4)nc3)n2)n[nH]1 [Compound I-19, 2-(8-(6-(4-fluoro-1H-pyrazol-1-yl)nicotinoyl)-3,8-diazabicyclo[3.2.1]octane-3-yl)-6-((5-methyl-1H-pyrazol-3-yl)amino)pyrimidin-4-formic acid] | 2760 | 25.6
14 | Cc1cc(Nc2cc(CO)nc(N3CC4CCC(C3)N4C(=O)c3ccc(-n4cc(F)cn4)nc3)n2)n[nH]1 [Compound I-20, (6-(4-fluoro-1H-pyrazol-1-yl)pyridin-3-yl)(3-(4-(hydroxymethyl)-6-((5-methyl-1H-pyrazol-3-yl)amino)pyrimidin-2-yl)-3,8-diazabicyclo[3.2.1]octane-8-yl)methanone] | 1550 | 3
15 | Cc1cc(Nc2cc(C)[nH]n2)nc(N2CC3CCC(C2)N3C(=O)c2ccc(-c3cnn(C)c3)nn2)n1 [Compound I-22, (6-(1-methyl-1H-pyrazol-4-yl)pyridazin-3-yl)(3-(4-methyl-6-((5-methyl-1H-pyrazol-3-yl)amino)pyrimidin-2-yl)-3,8-diazabicyclo[3.2.1]octane-8-yl)methanone] | 221 | 2
16 | Cc1cc(Nc2cc(C)[nH]n2)nc(N2CC3CCC(C2)N3C(=O)c2ccc(-c3cnn(C)c3)nc2)n1 [Compound I-24, (6-(1-methyl-1H-pyrazol-4-yl)pyridin-3-yl)(3-(4-methyl-6-((5-methyl-1H-pyrazol-3-yl)amino)pyrimidin-2-yl)-3,8-diazabiciyclo [3.2.1]octane-8-yl) methanone] | 374 | 8.1
17 | Cc1cc(Nc2cc(C)[nH]n2)nc(N2CC3CCC(C2)N3C(=O)c2ccc(-c3ccc(F)cc3)nc2)n1 [Compound I-25, (6-(4-fluorophenyl)pyridin-3-yl)(3-(4-methyl-6-((5-methyl-1H-pyrazol-3-yl)amino)pyrimidin-2-yl)-3,8-diazabicyclo[3.2.1]octane 8-yl)methanone] | 260 | 5.6
18 | Cc1cc(Nc2cc(C)[nH]n2)nc(N2CC3CCC(C2)N3C(=O)c2ccc(-c3ccncc3)nc2)n1 [Compound I-28, [2,4′-bipyridin]-5-yl(3-(4-methyl-6-((5-methyl-1H-pyrazol-3-yl)amino)pyrimidin-2-yl)-3,8-diazabicyclo [3.2.1]octane-8-yl)methanone] | 467 | 2.6
19 | Cc1cc(Nc2cc(C)[nH]n2)nc(N2C3CCC2CN(C(=O)c2ccc(-n4cc(F)cn4)nn2)C3)c1 [Compound I-30, (6-(4-fluoro-1H-pyrazol-1-yl)pyridazin-3-yl)(8-(4-methyl-6-((5-methyl-1H-pyrazol-3-yl)amino)pyridin-2-yl)-3,8-diazabicyclo[3.2.1]octane-3-yl)methanone] | 95 | 1.8

Source: US12234222B2, “Piperazine amide derivative, preparation method therefor, and use thereof in medicine” (ZHEJIANG HISUN PHARMACEUTICAL CO., LTD., priority 2019, dated 2025)
